# According to US9801901B2, “Alginate oligomers for use in overcoming multidrug resistance in bacteria” (priority 2009, dated 2017):
# Read-outs that look alike come from different tables or passages of the source. Marks after values point to notes of the source that are not given here.
# Key:
# [1] = test system: V19 non MDR Acinetobacter baumannii; experiment: MIC assay, CAMHB with M-block alginate oligomer, no visible growth; assay type: cell-based; conditions: Table 7, V19 non MDR Acin. baum
# Excerpt: The study described in Example 1 was repeated with the following strains of Acinetobacter baumannii, antibiotics and M-block alginate oligomer in place of OligoG CF-5/20 as detailed in Table 7. The M-block oligomer is 100% M with a DPn of 15 to 18,
# [2] = test system: V23 1322 Burkholderia cepacia; experiment: MIC assay, CAMHB with alginate oligomer, no visible growth; assay type: cell-based
# [3] = test system: Acinetobacter lwoffii (6056, V22); experiment: MIC-assay, Mueller-Hinton broth with G-block alginate, 384-well, OD600
# [4] = test system: Pseudomonas aeruginosa ATCC 39324, mucoid type strain (R79); experiment: MIC assay, CAMHB with alginate oligomer, no visible growth; assay type: cell-based; conditions: Pseudomonas aeruginosa, ATCC39324, Table 1, R79, read-out: MIC
# MDR Pseudomonas strains = experiment: MIC assay of Example 1, summary over the MDR Pseudomonas strains; assay type: cell-based, Pseudomonas aeruginosa
# [5] = test system: Acinetobacter baumannii (Egypt, V9); experiment: MIC-assay, Mueller-Hinton broth with G-block alginate, 384-well, OD600
# [6] = test system: Pseudomonas aeruginosa MDR 301 from Poland (V2); experiment: MIC assay, CAMHB with alginate oligomer, no visible growth; assay type: cell-based; conditions: Pseudomonas aeruginosa, Table 1, V2 MDR 301 PA, read-out: MIC
# [7] = test system: Burkholderia cepacia (1322, V23); experiment: MIC-assay, Mueller-Hinton broth with G-block alginate, 384-well, OD600
# [8] = test system: V9 (Egypt) Acinetobacter baumannii; experiment: MIC assay, CAMHB with alginate oligomer, no visible growth; assay type: cell-based; conditions: Table 5, V9 MDR Acin. baum
# [9] = test system: PA01 Pseudomonas aeruginosa ATCC 15692; experiment: MIC assay, two-fold antibiotic dilutions in CAMHB with alginate oligomer, no visible growth; assay type: cell-based; conditions: Pseudomonas aeruginosa, ATCC15692, Table 1, PA01, read-out: MIC
# [10] = test system: Klebsiella pneumoniae KP05 506 from India (V3); experiment: MIC assay, CAMHB with alginate oligomer, no visible growth; assay type: cell-based; conditions: for MIC: Klebsiella pneumoniae, Table 1, V3 KP05 506, read-out: MIC
# [11] = test system: V10 (Egypt) Acinetobacter lwoffii; experiment: as above; assay type: cell-based; conditions: Table 5, V10 MDR Acin. lwoff
# [12] = test system: Pseudomonas aeruginosa CFA 24-1, clinical mucoid strain (R80); experiment: as above; assay type: cell-based; conditions: Pseudomonas aeruginosa, Table 1, R80, read-out: MIC
# [13] = Burkholderia cepacia, Table 5, V23 MDR Burk cep, OligoCF-5/20 0G, read-out: MIC
# [14] = Table 5, V23 MDR Burk cep, OligoCF-5/20 +2% G
# [15] = Table 5, V23 MDR Burk cep, OligoCF-5/20 +6% G
# [16] = Table 5, V23 MDR Burk cep, OligoCF-5/20 +10% G
# [17] = Table 9, G-block (OligoCF-5/20) 0%
# [18] = Table 9, G-block (OligoCF-5/20) 2%
# [19] = Table 9, G-block (OligoCF-5/20) 6%
# [20] = Table 9, G-block (OligoCF-5/20) 10%
# [21] = Table 8, G-block (OligoCF-5/20) 0%
# [22] = Table 8, G-block (OligoCF-5/20) 2%
# [23] = Table 8, G-block (OligoCF-5/20) 6%
# [24] = Table 8, G-block (OligoCF-5/20) 10%
compound,measurement,setting,value
O=C(O)c1cn(C2CC2)c2cc(N3CCNCC3)c(F)cc2c1=O [Ciprofloxacin],MIC,[1]; M-block oligomer 0M,64 mg/L
same,MIC,[1]; M-block oligomer +2% M,32 mg/L
same,MIC,[1]; M-block oligomer +6% M,16 mg/L
same,MIC,[2]; [13],64 mg/L
same,MIC,[2]; [14],64 mg/L
same,MIC,[2]; [15],64 mg/L
same,MIC,[2]; [16],32^† μg/ml
same,MIC,[3]; [17],< 2 mg/L
same,MIC,[3]; [18],< 2 mg/L
same,MIC,[3]; [19],< 2 mg/L
same,MIC,[3]; [20],< 2 mg/L
same,MIC,[4]; OligoCF-5/20 +2% G,0.0625 mg/L
same,MIC,[4]; OligoCF-5/20 +6% G,0.0312 mg/L
same,MIC,[4]; OligoCF-5/20 +10% G,0.0312 mg/L
same,effectiveness when used in combination with the alginate oligomers,MDR Pseudomonas strains,more effective
same,MIC,[5]; [17],> 8 mg/L
same,MIC,[5]; [18],> 8 mg/L
same,MIC,[5]; [19],8 mg/L
same,MIC,[5]; [20],8 mg/L
same,MIC,[6]; OligoCF-5/20 0G,16 mg/L
same,MIC,[6]; OligoCF-5/20 +2% G,16 mg/L
same,MIC,[6]; OligoCF-5/20 +6% G,8 mg/L
same,MIC,[6]; OligoCF-5/20 +10% G,8 mg/L
same,MIC,[7]; [21],> 8 mg/L
same,MIC,[7]; [22],> 8 mg/L
same,MIC,[7]; [23],> 8 mg/L
same,MIC,[7]; [24],> 8 mg/L
same,MIC,[8]; OligoCF-5/20 0G,-64^† μg/ml
same,MIC,[8]; OligoCF-5/20 +2% G,32^† μg/ml
same,MIC,[8]; OligoCF-5/20 +6% G,32^† μg/ml
same,MIC,[8]; OligoCF-5/20 +10% G,32^† μg/ml
same,MIC,[9]; OligoCF-5/20 +2% G,0.0625 mg/L
same,MIC,[9]; OligoCF-5/20 +6% G,0.0625 mg/L
same,MIC,[9]; OligoCF-5/20 +10% G,0.0312 mg/L
C[C@H]1[C@H](NC(=O)/C(=N\OC(C)(C)C(=O)O)c2csc(N)n2)C(=O)N1S(=O)(=O)O [Aztreonam],effectiveness in conjunction with alginate oligomers,"[10]; Example 1, KP05 506",more effective
same,MIC,[10]; OligoCF-5/20 0G,2050 mg/L
same,MIC,[10]; OligoCF-5/20 +2% G,2050 mg/L
same,MIC,[10]; OligoCF-5/20 +6% G,512 mg/L
same,MIC,[10]; OligoCF-5/20 +10% G,256 mg/L
same,MIC,[1]; M-block oligomer 0M,64 mg/L
same,MIC,[1]; M-block oligomer +2% M,32 mg/L
same,MIC,[1]; M-block oligomer +6% M,8 mg/L
same,MIC,[1]; M-block oligomer +10% M,8 mg/L
same,MIC,[2]; [13],> 512 mg/L
same,MIC,"[2]; Burkholderia cepacia, Table 6, V23, Experiment 1 (18-03-10), OligoCF-5/20 0G, read-out: MIC",> 4100 mg/L
same,MIC,"[2]; Burkholderia cepacia, Table 6, V23, Experiment 2 (18-03-10), OligoCF-5/20 0G, read-out: MIC",> 4100 mg/L
same,MIC,"[2]; Burkholderia cepacia, Table 6, V23, Experiment 3 (19-03-10), OligoCF-5/20 0G, read-out: MIC",> 4100 mg/L
same,MIC,[2]; [14],>512 mg/L
same,MIC,[2]; [15],512^† μg/ml
same,MIC,[2]; [16],128^† μg/ml
same,MIC,"[2]; Table 6, V23, Experiment 1 (18-03-10), OligoCF-5/20 +2% G",>4096 mg/L
same,MIC,"[2]; Table 6, V23, Experiment 1 (18-03-10), OligoCF-5/20 +6% G",1024^† μg/ml
same,MIC,"[2]; Table 6, V23, Experiment 1 (18-03-10), OligoCF-5/20 +10% G",256^† μg/ml
same,MIC,"[2]; Table 6, V23, Experiment 2 (18-03-10), OligoCF-5/20 +2% G",>4096 mg/L
same,MIC,"[2]; Table 6, V23, Experiment 2 (18-03-10), OligoCF-5/20 +6% G",1024^† μg/ml
same,MIC,"[2]; Table 6, V23, Experiment 2 (18-03-10), OligoCF-5/20 +10% G",512^† μg/ml
same,MIC,"[2]; Table 6, V23, Experiment 3 (19-03-10), OligoCF-5/20 +2% G",>4096 mg/L
same,MIC,"[2]; Table 6, V23, Experiment 3 (19-03-10), OligoCF-5/20 +6% G",1024^† μg/ml
same,MIC,"[2]; Table 6, V23, Experiment 3 (19-03-10), OligoCF-5/20 +10% G",128^† μg/ml
same,MIC,[3]; [17],64 mg/L
same,MIC,[3]; [18],32 mg/L
same,MIC,[3]; [19],16 mg/L
same,MIC,[3]; [20],4 mg/L
same,MIC,[4]; OligoCF-5/20 0G,2 mg/L
same,MIC,[4]; OligoCF-5/20 +2% G,2 mg/L
same,MIC,[4]; OligoCF-5/20 +6% G,< 1 mg/L
same,MIC,[4]; OligoCF-5/20 +10% G,< 1 mg/L
same,MIC,"[11]; Acinetobacter lwoffii, OligoCF-5/20 0G, read-out: MIC",32 mg/L
same,MIC,[11]; OligoCF-5/20 +2% G,16^† μg/ml
same,MIC,[11]; OligoCF-5/20 +6% G,4^† μg/ml
same,MIC,[11]; OligoCF-5/20 +10% G,1^† μg/ml
same,effectiveness when used in combination with the alginate oligomers,MDR Pseudomonas strains,more effective
same,MIC,[5]; [17],> 16 mg/L
same,MIC,[5]; [18],> 16 mg/L
same,MIC,[5]; [19],> 16 mg/L
same,MIC,[5]; [20],> 16 mg/L
same,MIC,[6]; OligoCF-5/20 0G,64 mg/L
same,MIC,[6]; OligoCF-5/20 +2% G,16 mg/L
same,MIC,[6]; OligoCF-5/20 +6% G,8 mg/L
same,MIC,[6]; OligoCF-5/20 +10% G,8 mg/L
same,MIC,[12]; OligoCF-5/20 0G,< 1 mg/L
same,MIC,[12]; OligoCF-5/20 +2% G,< 1 mg/L
same,MIC,[12]; OligoCF-5/20 +6% G,< 1 mg/L
same,MIC,[12]; OligoCF-5/20 +10% G,< 1 mg/L
same,MIC,[7]; [21],> 16 mg/L
same,MIC,[7]; [22],> 16 mg/L
same,MIC,[7]; [23],> 16 mg/L
same,MIC,[7]; [24],> 16 mg/L
same,MIC,"[8]; Acinetobacter baumannii, OligoCF-5/20 0G, read-out: MIC",> 512 mg/L
same,MIC,[8]; OligoCF-5/20 +2% G,512^† μg/ml
same,MIC,[8]; OligoCF-5/20 +6% G,256^† μg/ml
same,MIC,[8]; OligoCF-5/20 +10% G,128^† μg/ml
same,MIC,[9]; OligoCF-5/20 0G,8 mg/L
same,MIC,[9]; OligoCF-5/20 +2% G,16 mg/L
same,MIC,[9]; OligoCF-5/20 +6% G,4 mg/L
same,MIC,[9]; OligoCF-5/20 +10% G,2 mg/L
